Data set [1] concerns MDR strains of Gram-negative bacteria. Further details: method as in PMID 26824939. The conditions noted are these: cited from earlier work.
The subject of data set [2] is MRSA HEMSA 5. In words: Intrinsic antibacterial activity (MIC, microdilution) against MRSA HEMSA 5. Format: cell-based, S. aureus. The protocol: (§1) Initially, 12 arylideneimidazolone derivatives were evaluated in vitro for their intrinsic antibacterial effect against two strains of S. aureus: the reference strain S. aureus ATCC 25923 and extremely-drug resistant (XDR) MRSA HEMSA 5 clinical isolate. This step of the study was necessary for: (i) elucidation whether molecules tested are devoid of antistaphylococcal activity and thus cannot become antimicrobial agents by themselves; and (ii) determination of the concentrations of compounds suitable for the further assay on their antibiotic adjuvant potency. In addition, the antistaphylococcal efficacy of oxacillin, which was paired with compounds tested, in the following assays was also assessed (Table 3).

The test system of data set [3] is AcrAB-TolC efflux pump in E. aerogenes Ea-289. The data set is described as follows: Real-time efflux (RTE) assay with 1,2'-dNA. The conditions noted are these: compound 100 µM; Ea-289 strain.
Data set [4] concerns E. aerogenes Ea-294, Ea-298. The data set is described as follows: MIC (microdilution) against E. aerogenes strains devoid of AcrAB / TolC.
Data set [5] deals with HepG2 cells. The data set is described as follows: Hepatotoxicity, MTS viability assay. The conditions noted are these: 72 h; for HepG2 cells' viability: MTS. The format is cell-based. The protocol:
Determination of potential hepatotoxicity was performed with hepatoma HepG2 cells by standard colorimetric MTS procedure. Compound 9 was diluted into the cell culture media in the following concentrations: 0.1, 1, 10 and 100 μM, added to the cells and incubated for 72 h at 37 °C in the presence of 5% CO2. The cytostatic drug doxorubicin (DX) was used at 1 µM, as the reference. […] However, in comparison to the result obtained for the reference DX the hepatotoxicity potential of tested compound is moderate, as its decreased cells’ viability to ~74% of control at 10 µM, whereas DX to ~15% of control at 1 µM (Figure 10).
The HepG2 cells were seeded in 96-well plates at a concentration of 1 × 10^4 cells/well and incubated for 24 h at 37 °C in 5% CO2 atmosphere to reach 50% of confluence. Compound 9 was diluted into fresh growth medium and added to the cells at the final concentrations 0.1 μM–100 μM. The positive controls DX and CCCP were added at 1 μM and 10 μM, respectively, and the cells were incubated for 72 h. The MTS reagent (CellTiter 96® AQueous One Solution Cell Proliferation Assay, Promega, Madison, WI, USA) was added next to the each well and incubated for 4 h. The absorbance was measured next using a microplate reader (EnSpire, PerkinElmer, Waltham, MA USA) at 490 nm to determine cells’ viability.

Data set [6] has as its system E. aerogenes Ea-289. The data set is described as follows: MIC (microdilution) against E. aerogenes Ea-289 overexpressing AcrAB-TolC, porin-deficient.
Data set [7] relates to Salmonella typhimurium TA100. The format is cell-based. The conditions noted are these: for Mean of Revertants: 72 h; for Fold Increase Over Baseline: mutagenic if ≥ 2; for Binomial B-Value: ≤ 0.01 may be cytotoxic effect. How it is done: The mutagenicity was evaluated using Ames microplate fluctuation protocol (MPF) performed with Salmonella typhimurium TA100 strain, which is able to detect base pair substitutions. Calculation of medium control baseline (MCB) was performed basing on mean number of revertants in standard medium control in addition with one standard deviation. According to the manufacturer’s protocol, the mutagen alert is determined as 2-fold of medium control baseline (2 x MCB), which in this study was calculated as 24 revertants.
Ames microplate fluctuation protocol (MPF) assay was obtained from Xenometrix AG (Allschwil, Switzerland). The occurrence of mutagen-induced or spontaneous reversion events to histidine prototrophy was determined as a growth of S. typhimurium TA100 in the indicator medium without histidine after 72 h incubation at 37 °C temperature. NQNO (0.5 µM) was used as a positive control. Compound 9 was tested in triplicate at the final concentrations 1 and 10 µM. The revertants’ growth induced the colour change of medium which was analysed next colourimetrically with a microplate reader (EnSpire, PerkinElmer, Waltham, MA, USA) at 420 nm.

The nature of data set [8]: PAMPA membrane permeability (Pre-coated PAMPA Plate System Gentest). Format: in vitro ADME. The conditions noted are these: 200 µM in PBS pH 7.4, room temperature, read-out: Pe ± SD.
The test system of data set [9] is E. aerogenes CM-64. The data set is described as follows: MIC (microdilution) against E. aerogenes CM-64 overexpressing AcrAB-TolC.
Data set [10] relates to S. aureus ATCC 25923. In words: Intrinsic antibacterial activity (MIC, microdilution) against reference S. aureus strain. Format: cell-based. The conditions noted are these: S. aureus ATCC 25923, compound alone, MH II broth; for MIC: Staphylococcus aureus, ATCC25923, read-out: MIC Value. The protocol:
as §1

Data set [11] relates to MRSA HEMSA 5. The data set is described as follows: MIC reduction assay: influence on oxacillin susceptibility in MRSA. The format is cell-based, S. aureus. How it is done: The lack of a direct antibacterial activity of arylideneimidazolone derivatives tested allowed analyzing their anti-resistance potency in combination with the β-lactam antibiotic, oxacillin. […] The potential of compounds to become antibiotic adjuvants was evaluated by comparing the drug effectiveness in the presence and absence of compounds tested, thereby, by determining activity gain parameter A (Table 5). […] Slightly lower adjuvant-like activity was determined for the imidazolone derivatives 7 and 10 (A = 8–16). The efficacy of the remaining compounds was slightly less marked, however, also significant. Although compounds tested improved noticeably the antibacterial activity of oxacillin against MRSA clinical isolate, none of them restored the activity of the antibiotic (MIC < 2 µg/mL) against this highly resistant strain.

Data set [12] relates to S. aureus ATCC 25923. In words: MIC reduction assay: influence on oxacillin susceptibility in reference strain. The format is cell-based.
Where [13] appears, read: Staphylococcus aureus, MRSA HEMSA 5, compound alone, MH II broth, read-out: MIC Value.

Values joined by “and” are separate entries in the source; they are usually repeats but may differ in a detail not shown here. Identical values can stand only once. Like-named read-outs stand apart in the source and are kept apart here. A value given as a limit tells only on which side of the number the result lay.

Regarding `O=C1NC(N2CCNCC2)=N/C1=C\c1ccc(-c2ccccc2)cc1` [Compound 5], the “reduction of rifampin MIC” value in [1] (MDR Gram-negative bacteria) is listed as 32 fold. Besides, the “reduction of antibiotics MIC values” in data set [1] (oxacillin, chloramphenicol, linezolid and clarytromycin) is 8 fold.

Regarding `CN1CCN(CCCN2C(=O)/C(=C/c3ccc4ccccc4c3)N=C2N)CC1.Cl` [Compound 9, (Z)-2-Amino-3-(3-(4-methylpiperazin-1-yl)propyl)-5-(naphthalen-2-ylmethylene)-3H-imidazol-4(5H)-one hydrochloride], the melting point is 215 to 217 °C. In addition, the MIC in [2] (setting [13]) was 500 µM. Moreover, the “Inhibitory efficiency (IE) of 1,2'-dNA efflux” value in data set [3] is 80%. This molecule had an MIC in [4] (Klebsiella aerogenes) of 1000 µM. The “HepG2 cells' viability” value in data set [5] (10 µM) is listed as ~ 74 % of control. In data set [5] (10 and 100 µM, p < 0.001 vs control), the “effect on HepG2 cells viability” value is “statistically significant decrease”. In addition, the MIC in data set [6] (Klebsiella aerogenes, EA289) is over 2000 µM. In [7] (1 µM), the “Mean of Revertants” value stood at 9.33, the “Fold Increase Over Baseline” value stood at 0.78 and the “Binomial B-Value” worked out at 0.6331. In addition, in data set [7] (10 µM), the “Mean of Revertants” value came to 5.33, the “Fold Increase Over Baseline” value amounted to 0.44 and the “Binomial B-Value” turned out to be 0.0093. In data set [7] (1 and 10 µM, mutagen alert 24 revertants), this molecule came in with a maximum revertants occurred of at most 11 revertants. The Papp at 5 h, 200 µM in [8] was 0.72 ± 0.27 ×10⁻⁶ cm/s. In data set [9] (Klebsiella aerogenes, CM64), this molecule had an MIC of over 2000 µM. Besides, the MIC in data set [10] is 500 µM.

For the molecule `Cl.NC1=N/C(=C\c2cccc(Oc3ccccc3)c2)C(=O)N1CCCN1CCOCC1` [Compound 17, (Z)-5-(3-phenoxybenzylidene)-2-amino-3-(3-morpholinopropyl)-3H-imidazol-4(5H)-one hydrochloride], the melting point was 227 to 230 °C. For the same molecule, in data set [2] (setting [13]), the minimum inhibitory concentration (MIC) came out at 250 µM. In [3], the “Inhibitory efficiency (IE) of 1,2'-dNA efflux” value turned out to be 61%. Besides, the MIC in data set [4] (Klebsiella aerogenes) stood at 500 µM. Also, the MIC in data set [6] (Klebsiella aerogenes, EA289) is over 2000 µM. Moreover, the “increase of MIC for Ea-289 and CM-64 in comparison to Ea-298 and Ea-294” value in data set [6] (efflux overexpressing vs deficient strains) is at least 4 fold. Also, in data set [9] (Klebsiella aerogenes, CM64), the MIC was over 2000 µM. In data set [11] (MRSA HEMSA 5), the “reduction of MIC of oxacillin” value came to 2 fold. Further, the minimum inhibitory concentration (MIC) in data set [10] came out at 250 µM.

Take `COc1cccc2c1C(=O)c1c(O)c3c(c(O)c1C2=O)C[C@@](O)(C(=O)CO)C[C@@H]3O[C@H]1C[C@H](N)[C@H](O)[C@H](C)O1` [DX, doxorubicin, reference compound]: in [5] (1 µM), the “HepG2 cells' viability” value is ~ 15 % of control.

“(Z)-5-((9H-Fluoren-2-yl)methylene)-2-amino-3-(2-(4-methylpiperazin-1-yl)ethyl)-3H-imidazol-4(5H)-one hydrochloride [Compound 13]”: the “MIC Value” was 125 µM in data set [2] (MRSA HEMSA 5, compound alone, MH II broth) and 62.5 to 125 µM in data set [10]. Besides, the MIC was 0.0625–0.125 mM and 28.25–56.5 µg/mL in data set [2] (text summary for both strains: ATCC 25923 and MRSA HEMSA 5); 250 µM in data set [4] (Ea-294, Ea-298); 500 µM in [6] (Ea-289); 500 µM in [9] (CM-64). The entries for the “Activity Gain [A]” value in [12] and in [11] were 1 and 4–8, respectively. Besides, the entries for the “Range of Reduction (oxacillin MIC)” value in data set [12] and in data set [11] were “no effect” and “from 512 to 64-128”, respectively.
